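Cultured in 96-well plates, cells were exposed to test compound for 48 hours across five concentrations. GI50 marks 50% less growth. TGI: concentration producing complete growth inhibition.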
Columns and labels:
Test in all cases: growth of human tumour cells (NCI), 48 h
SF-268 CNS = tested on: SF-268 CNS
OVCAR-5 ovarian = tested on: OVCAR-5 ovarian
UACC-62 melanoma = tested on: UACC-62 melanoma
HCT-15 colon = tested on: HCT-15 colon
SK-OV-3 ovarian = tested on: SK-OV-3 ovarian
COLO 205 colon = tested on: COLO 205 colon
HCT-116 colon = tested on: HCT-116 colon
CAKI-1 renal = tested on: CAKI-1 renal
LOX IMVI melanoma = tested on: LOX IMVI melanoma
RXF 393 renal = tested on: RXF 393 renal

SMILES	TGI (SF-268 CNS) [µM]	TGI (OVCAR-5 ovarian) [µM]	TGI (UACC-62 melanoma) [µM]	TGI (HCT-15 colon) [µM]	TGI (SK-OV-3 ovarian) [µM]	TGI (COLO 205 colon) [µM]	TGI (HCT-116 colon) [µM]	TGI (CAKI-1 renal) [µM]	TGI (LOX IMVI melanoma) [µM]	GI50 (SF-268 CNS) [µM]	GI50 (OVCAR-5 ovarian) [µM]	GI50 (UACC-62 melanoma) [µM]	GI50 (HCT-15 colon) [µM]	GI50 (SK-OV-3 ovarian) [µM]	GI50 (COLO 205 colon) [µM]	GI50 (HCT-116 colon) [µM]	GI50 (CAKI-1 renal) [µM]	GI50 (LOX IMVI melanoma) [µM]	GI50 (RXF 393 renal) [µM]	TGI (RXF 393 renal) [µM]
CC(=O)On1c(-c2ccccc2-c2nc3ccccc3n2OC(C)=O)nc2ccccc21	> 100	> 100	> 100	> 100	> 100	46	> 100	> 100	> 100	–	–	–	–	–	–	–	–	–	–	–
COc1ccc2c(c1)CC[C@H](O)/C2=C/c1cc(OC)c(OC)c(OC)c1	> 100	> 100	> 100	> 100	> 100	0.639	> 100	> 100	> 100	0.198	0.906	0.0403	0.0567	0.138	0.106	0.104	0.118	0.207	–	–
COc1ccc(OC)c(-c2cc(-c3ccc(Cl)cc3)nn2-c2ccc(S(=O)(=O)NC(C)=O)cc2)c1	60.9	19.3	11.2	18.8	–	46.7	11.2	> 100	3.65	21.1	5.97	3.22	3.29	–	18.2	2.84	37.6	1.79	23.1	> 100
CN/N=C(\C)C(CN(C)C)C(c1ccccc1)c1c(O)c2ccccc2oc1=O (stereo unspecified)	> 100	> 100	> 100	> 100	–	> 100	> 100	> 100	> 100	–	–	–	–	–	–	–	–	–	–	> 100
N#CCN/C=C\C(=O)c1ccc(Cl)cc1	> 100	97.3	49.3	–	> 100	> 100	> 100	> 100	> 100	26.7	37.6	15.7	–	34.7	32.7	29.9	30.1	31.5	40.8	> 100
CCOc1cccc2ccc[n+](CC)c12	77.9	> 100	> 100	–	> 100	> 100	> 100	–	> 100	–	–	–	–	–	–	–	–	–	–	> 100
COc1ccc(/C=N\Nc2ccc([N+](=O)[O-])cn2)cc1OC	> 100	> 100	> 100	> 100	24.3	–	–	–	> 100	> 100	> 100	> 100	> 100	3.48	–	–	–	> 100	3.65	16.7
CC(C)(C)C1CCC2c3c([nH]c4ccccc34)C3C(=O)N(c4ccccc4)C(=O)C3C2C1 (stereo unspecified)	52.5	> 100	56.7	> 100	5.18	17.8	–	–	15.3	–	–	–	–	–	–	–	–	–	–	14.4
Cn1c(=O)c2nc(-c3ccc(Cl)cc3)oc2n(C)c1=O	> 100	> 100	> 100	> 100	–	–	> 100	> 100	> 100	–	–	–	–	–	–	–	–	–	–	> 100
CCOC(=N)/C(=C1\OC(N)=C(c2ccc(Cl)cc2)C1=O)c1ccc(Cl)cc1	31.3	35	29	–	> 100	30.2	30.7	62.8	28.1	–	–	–	–	–	–	–	–	–	–	27.2
Cc1cc(C)c(Cn2cnc3c(Cl)ncnc32)c(C)c1CCl	> 100	> 100	> 100	18.8	> 100	> 100	> 100	–	8.69	79.7	> 100	61.3	0.343	53.7	79.1	68.8	–	0.652	> 100	> 100
CCCN(CCCC(NC(C)=O)C(=O)NCc1ccccc1)C(=O)NCCCl (stereo unspecified)	> 100	–	> 100	> 100	–	> 100	> 100	> 100	–	–	–	–	–	–	–	–	–	–	–	> 100
O=c1c(Cl)c(Cl)c(=O)c2sc3cc(Cl)ccc3[nH]c1=2	> 100	> 100	> 100	> 100	> 100	> 100	> 100	> 100	–	–	–	–	–	–	–	–	–	–	–	> 100
CSc1n[n+]2c(s1)SCCC2	> 100	> 100	> 100	–	–	48.3	> 100	> 100	> 100	–	–	–	–	–	–	–	–	–	–	> 100
COC(=O)c1cc(O)c2c(c1C(=O)OC)C[C@H]1[C@@H]3CC=C4C[C@@H](O)CC[C@]4(C)[C@H]3CC[C@]21C	13	23.9	–	35.1	27.4	–	14.6	9.07	–	3.13	4.82	–	3.03	4.75	–	3.09	2.89	–	1.19	3.39
CCN(CC)CCCC(C)N=C(C1=C(C(=NC(C)CCCN(CC)CC)c2cccc(OC)c2)C(=O)NC1=O)c1cccc(OC)c1 (stereo unspecified)	8.29	–	15	5.53	13.1	1.56	1.89	8.62	2.06	1.97	–	7.71	1.47	2.98	0.772	0.747	1.66	0.992	1.11	4.15
COc1cc(CNc2ccccc2C(=O)N2CCN(C(=O)c3cc(-c4cc(OC)c(OC)c(OC)c4)n4nc(-c5ccccc5)cc4n3)CC2)cc(OC)c1OC	> 100	> 100	> 100	> 100	38.4	15.4	–	> 100	> 100	4.89	10.9	2.37	4.25	4.42	4.1	–	1.39	4.86	2.32	7.54
